Assay results from the supplement of paper PMC11061612.

What was measured:
Experiment in all cases: Bliss excess, mean over the matrix (fraction); higher = more synergy
[1] = tested on: SKN-3 (Head and Neck Carcinoma)
Outline: (§1)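 After 24 hours at 37°C and 5% CO2 in 1536-well plates, cells in DMEM/F12 or RPMI plus 10% FBS received two-drug dose matrices for 72 hours. Viability came from CellTiter-Glo 2.0 luminescence and was scaled as inhibition, anchored at 0 by vehicle wells and at 1 by blank wells. Combination Emax is taken as the second-highest inhibition in the matrix, and Bliss excess as the observed combination effect less EA + EB − EA·EB, with EA and EB the single-agent effects.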

[2] = tested on: HLE (Hepatocellular Carcinoma)
Outline: as §1

A172 (Glioblastoma) = tested on: A172 (Glioblastoma)
Outline: as §1

HCC38 (Breast Carcinoma) = tested on: HCC38 (Breast Carcinoma)
Outline: as §1

[3] = tested on: WSU-DLCL2 (B-Cell Non-Hodgkin's Lymphoma)
Outline: as §1

[4] = tested on: MES-SA (Other Solid Carcinomas)
Outline: as §1

[5] = tested on: HCT-116 (Colorectal Carcinoma)
Outline: as §1

MCF7 (Breast Carcinoma) = tested on: MCF7 (Breast Carcinoma)
Outline: as §1

MSTO-211H (Mesothelioma) = tested on: MSTO-211H (Mesothelioma)
Outline: as §1

H4 (Low Grade Glioma) = tested on: H4 (Low Grade Glioma)
Outline: as §1

[6] = tested on: DOK (Oral Cavity Carcinoma)
Outline: as §1

[7] = tested on: CAL-39 (Other Solid Carcinomas)
Outline: as §1

[8] = tested on: HOP-92 (Non-Small Cell Lung Carcinoma)
Outline: as §1

[9] = tested on: SNU-61 (Colorectal Carcinoma)
Outline: as §1

[10] = tested on: HCC1143 (Breast Carcinoma)
Outline: as §1

[11] = tested on: SW48 (Colorectal Carcinoma)
Outline: as §1

[12] = tested on: 647-V (Bladder Carcinoma)
Outline: as §1

[13] = tested on: U-118-MG (Low Grade Glioma)
Outline: as §1

[14] = tested on: D-283MED (Other Solid Carcinomas)
Outline: as §1

HuO9 (Osteosarcoma) = tested on: HuO9 (Osteosarcoma)
Outline: as §1

Structure (SMILES) | Bliss excess [1] | Bliss excess [2] | Bliss excess (A172 (Glioblastoma)) | Bliss excess (HCC38 (Breast Carcinoma)) | Bliss excess [3] | Bliss excess [4] | Bliss excess [5] | Bliss excess (MCF7 (Breast Carcinoma)) | Bliss excess (MSTO-211H (Mesothelioma)) | Bliss excess (H4 (Low Grade Glioma)) | Bliss excess [6] | Bliss excess [7] | Bliss excess [8] | Bliss excess [9] | Bliss excess [10] | Bliss excess [11] | Bliss excess [12] | Bliss excess [13] | Bliss excess [14] | Bliss excess (HuO9 (Osteosarcoma))
COc1nnc2ccc(N3CCC(c4ccc(OCCN5CCN(C)C(=O)[C@H]5C)cc4)CC3)nn12 [AZD5153] + Cc1c2c(nn1C)CSCc1cc(n(C)n1)CSc1cc(c3ccccc3c1)OCCCc1c(C(=O)O)n(C)c3c-2c(Cl)ccc13 [AZD5991] (first compound max 1 µM, 7x7, partner max 1 µM) | -0.0234 | 0.0047 | -0.0698 | -0.0019 | 0.0182 | -0.0125 | -0.0049 | -0.0003 | 0.0307 | -0.0287 | -0.0051 | 0.0313 | -0.001 | -0.0178 | 0.0412 | 0.015 | -0.0135 | -0.0341 | -0.0409 | 0.0377
C[C@@H](c1ccc2nccn2c1)n1nnc2ncc(-c3cnn(C)c3)nc21 [Savolitinib] + CC1(C)CCC(CN2CCN(c3ccc(C(=O)NS(=O)(=O)c4ccc(NCC5CCOCC5)c([N+](=O)[O-])c4)c(Oc4cnc5[nH]ccc5c4)c3)CC2)=C(c2ccc(Cl)cc2)C1 [Venetoclax] (first compound max 1 µM, 7x7, partner max 1 µM) | -0.0543 | -0.0232 | -0.0498 | -0.0111 | 0.113 | -0.0736 | -0.0357 | -0.042 | -0.0501 | -0.0399 | -0.0578 | -0.0687 | -0.0181 | -0.0709 | -0.0361 | -0.0289 | -0.057 | -0.0416 | -0.0144 | -0.0531
NC1(C(=O)N[C@@H](CCO)c2ccc(Cl)cc2)CCN(c2ncnc3[nH]ccc23)CC1 [Capivasertib] + Cn1cnc2c(F)c(Nc3ccc(Br)cc3Cl)c(C(=O)NOCCO)cc21 [Selumetinib] (first compound max 10 µM, 7x7, partner max 10 µM) | -0.0759 | 0.0365 | -0.008 | 0.0116 | -0.0006 | -0.0017 | 0.0512 | -0.0332 | 0.0663 | -0.0307 | 0.0518 | -0.019 | 0.003 | 0.025 | -0.0014 | -0.0453 | -0.0134 | 0.0071 | 0.0855 | -0.0116
COc1nnc2ccc(N3CCC(c4ccc(OCCN5CCN(C)C(=O)[C@H]5C)cc4)CC3)nn12 [AZD5153] + CC1(C)CCC(CN2CCN(c3ccc(C(=O)NS(=O)(=O)c4ccc(NCC5CCOCC5)c([N+](=O)[O-])c4)c(Oc4cnc5[nH]ccc5c4)c3)CC2)=C(c2ccc(Cl)cc2)C1 [Venetoclax] (first compound max 1 µM, 7x7, partner max 1 µM) | -0.0576 | -0.0522 | -0.0363 | -0.0324 | 0.0805 | -0.06 | -0.0614 | -0.0183 | -0.111 | 0.033 | -0.0696 | -0.0432 | -0.0242 | -0.0374 | -0.0247 | -0.0081 | -0.0455 | -0.0349 | -0.0343 | -0.0198
CC1(C)CCC(CN2CCN(c3ccc(C(=O)NS(=O)(=O)c4ccc(NCC5CCOCC5)c([N+](=O)[O-])c4)c(Oc4cnc5[nH]ccc5c4)c3)CC2)=C(c2ccc(Cl)cc2)C1 [Venetoclax] + C[C@@H]1COCCN1C2=NC(=NC(=C2)C3(CC3)[S@](=N)(=O)C)C4=C5C=CNC5=NC=C4 [AZD6738] (first compound max 1 µM, 7x7, partner max 10 µM) | -0.043 | -0.063 | -0.0141 | -0.0264 | 0.0423 | 0.0105 | -0.0703 | 0.0003 | -0.0344 | -0.0301 | -0.0833 | -0.026 | -0.0427 | 0.0295 | -0.0573 | -0.0398 | -0.0317 | -0.0106 | -0.0345 | 0.0275
CC1(C)CCC(CN2CCN(c3ccc(C(=O)NS(=O)(=O)c4ccc(NCC5CCOCC5)c([N+](=O)[O-])c4)c(Oc4cnc5[nH]ccc5c4)c3)CC2)=C(c2ccc(Cl)cc2)C1 [Venetoclax] + CN(C)CCCOc1ccc(-c2ccc3ncc4c(c3c2)n(C2CCOCC2)c(=O)n4C)cn1 [AZD0156] (first compound max 1 µM, 7x7, partner max 1 µM) | -0.0221 | -0.0463 | -0.0482 | 0.0361 | 0.0518 | -0.0333 | -0.0286 | -0.0152 | -0.0243 | -0.0861 | -0.0184 | -0.0214 | 0.0047 | 0.0062 | -0.0051 | -0.0216 | -0.0036 | -0.0076 | 0.0189 | 0.0483
CN(CCO)CC[C@H](CSc1ccccc1)Nc1ccc(S(=O)(=O)NC(=O)c2ccc(N3CCC([C@@H](O)c4ccccc4-c4ccc(Cl)cc4)CC3)cc2)cc1S(=O)(=O)C(F)(F)F [AZD4320] + Cn1cnc2c(F)c(Nc3ccc(Br)cc3Cl)c(C(=O)NOCCO)cc21 [Selumetinib] (first compound max 1 µM, 7x7, partner max 3 µM) | 0.0268 | -0.0142 | -0.0071 | -0.0375 | 0.0155 | 0.0404 | -0.0232 | 0.0377 | 0.0146 | -0.0002 | -0.0003 | 0.0039 | -0.0341 | 0.0604 | 0.0112 | -0.0159 | 0.0631 | -0.0149 | 0.0172 | 0.041
